According to PubChem BioAssay (NCI):
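Compound exposure: 48 hours, 5 concentrations, 96-well plates. TGI is the concentration that stops growth completely.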

What was measured:
Experiment in all cases: NCI tumour cell line growth inhibition, 48 h
M14 melanoma = test system: M14 melanoma
NCI/ADR-RES ovarian = test system: NCI/ADR-RES ovarian
K-562 leukemia = test system: K-562 leukemia
TK-10 renal = test system: TK-10 renal
A498 renal = test system: A498 renal
OVCAR-3 ovarian = test system: OVCAR-3 ovarian
MDA-MB-435 = test system: MDA-MB-435
BT-549 breast = test system: BT-549 breast
U251 CNS = test system: U251 CNS
HCC-2998 colon = test system: HCC-2998 colon
OVCAR-8 ovarian = test system: OVCAR-8 ovarian
DU-145 prostate = test system: DU-145 prostate
SK-MEL-28 melanoma = test system: SK-MEL-28 melanoma
RXF 393 renal = test system: RXF 393 renal
SR leukemia = test system: SR leukemia
ACHN renal = test system: ACHN renal
MOLT-4 leukemia = test system: MOLT-4 leukemia
NCI-H226 lung = test system: NCI-H226 lung
HCT-15 colon = test system: HCT-15 colon
PC-3 prostate = test system: PC-3 prostate
SF-268 CNS = test system: SF-268 CNS
CCRF-CEM leukemia = test system: CCRF-CEM leukemia
SK-MEL-5 melanoma = test system: SK-MEL-5 melanoma
UACC-62 melanoma = test system: UACC-62 melanoma
HL-60(TB) leukemia = test system: HL-60(TB) leukemia
UACC-257 melanoma = test system: UACC-257 melanoma
NCI-H522 lung = test system: NCI-H522 lung
786-0 renal = test system: 786-0 renal
MDA-MB-231 breast = test system: MDA-MB-231 breast
NCI-H460 lung = test system: NCI-H460 lung
SK-OV-3 ovarian = test system: SK-OV-3 ovarian
MDA-N = test system: MDA-N
SF-295 CNS = test system: SF-295 CNS
MCF7 breast = test system: MCF7 breast
IGROV1 ovarian = test system: IGROV1 ovarian
LOX IMVI melanoma = test system: LOX IMVI melanoma
HOP-62 NSCLC = test system: HOP-62 NSCLC
OVCAR-5 ovarian = test system: OVCAR-5 ovarian
HOP-92 NSCLC = test system: HOP-92 NSCLC
COLO 205 colon = test system: COLO 205 colon
OVCAR-4 ovarian = test system: OVCAR-4 ovarian
SN12C renal = test system: SN12C renal
RPMI-8226 leukemia = test system: RPMI-8226 leukemia
A549 NSCLC = test system: A549 NSCLC
SNB-19 CNS = test system: SNB-19 CNS
NCI-H23 lung = test system: NCI-H23 lung
CAKI-1 renal = test system: CAKI-1 renal
SF-539 CNS = test system: SF-539 CNS
T-47D breast = test system: T-47D breast
HT29 colon = test system: HT29 colon
KM12 colon = test system: KM12 colon
EKVX NSCLC = test system: EKVX NSCLC
HCT-116 colon = test system: HCT-116 colon
SNB-75 CNS = test system: SNB-75 CNS
SW-620 colon = test system: SW-620 colon
HS 578T breast = test system: HS 578T breast
MALME-3M melanoma = test system: MALME-3M melanoma
SK-MEL-2 melanoma = test system: SK-MEL-2 melanoma
UO-31 renal = test system: UO-31 renal

Compound: CCOC(=O)/C(=C\c1c[nH]c2ccccc12)P(=O)(OCC)OCC
- TGI (M14 melanoma): > 100 µM
- TGI (NCI/ADR-RES ovarian): > 100 µM
- TGI (K-562 leukemia): > 100 µM
- TGI (TK-10 renal): > 100 µM
- TGI (A498 renal): 76.1 µM
- TGI (OVCAR-3 ovarian): 59.9 µM
- TGI (MDA-MB-435): > 100 µM
- TGI (BT-549 breast): 62.7 µM
- TGI (U251 CNS): > 100 µM
- TGI (HCC-2998 colon): > 100 µM
- TGI (OVCAR-8 ovarian): 53.5 µM
- TGI (DU-145 prostate): > 100 µM
- TGI (SK-MEL-28 melanoma): 94.3 µM
- TGI (RXF 393 renal): > 100 µM
- TGI (SR leukemia): 61.1 µM
- TGI (ACHN renal): > 100 µM
- TGI (MOLT-4 leukemia): > 100 µM
- TGI (NCI-H226 lung): 77.5 µM
- TGI (HCT-15 colon): 72.6 µM
- TGI (PC-3 prostate): 66.6 µM
- TGI (SF-268 CNS): > 100 µM
- TGI (CCRF-CEM leukemia): 66.9 µM
- TGI (SK-MEL-5 melanoma): > 100 µM
- TGI (UACC-62 melanoma): > 100 µM
- TGI (HL-60(TB) leukemia): 62 µM
- TGI (UACC-257 melanoma): > 100 µM
- TGI (NCI-H522 lung): 89.9 µM
- TGI (786-0 renal): 99.6 µM
- TGI (MDA-MB-231 breast): 68.4 µM
- TGI (NCI-H460 lung): 61.9 µM
- TGI (SK-OV-3 ovarian): 90.4 µM
- TGI (MDA-N): > 100 µM
- TGI (SF-295 CNS): > 100 µM
- TGI (MCF7 breast): > 100 µM
- TGI (IGROV1 ovarian): > 100 µM
- TGI (LOX IMVI melanoma): 40.3 µM
- TGI (HOP-62 NSCLC): > 100 µM
- TGI (OVCAR-5 ovarian): 87.9 µM
- TGI (HOP-92 NSCLC): 77.1 µM
- TGI (COLO 205 colon): 44.1 µM
- TGI (OVCAR-4 ovarian): 89.4 µM
- TGI (SN12C renal): > 100 µM
- TGI (RPMI-8226 leukemia): 76.8 µM
- TGI (A549 NSCLC): > 100 µM
- TGI (SNB-19 CNS): > 100 µM
- TGI (NCI-H23 lung): 71.5 µM
- TGI (CAKI-1 renal): > 100 µM
- TGI (SF-539 CNS): 43.6 µM
- TGI (T-47D breast): > 100 µM
- TGI (HT29 colon): 77.5 µM
- TGI (KM12 colon): > 100 µM
- TGI (EKVX NSCLC): > 100 µM
- TGI (HCT-116 colon): > 100 µM
- TGI (SNB-75 CNS): 75.6 µM
- TGI (SW-620 colon): > 100 µM
- TGI (HS 578T breast): > 100 µM
- TGI (MALME-3M melanoma): > 100 µM

Compound: CC(C)N(C(C)C)S(=O)(=O)CC12CCC(C/C1=N\O)C2 (stereo not drawn)
- TGI (M14 melanoma): > 100 µM
- TGI (NCI/ADR-RES ovarian): > 100 µM
- TGI (K-562 leukemia): > 100 µM
- TGI (TK-10 renal): > 100 µM
- TGI (OVCAR-3 ovarian): > 100 µM
- TGI (MDA-MB-435): > 100 µM
- TGI (BT-549 breast): > 100 µM
- TGI (U251 CNS): > 100 µM
- TGI (HCC-2998 colon): > 100 µM
- TGI (OVCAR-8 ovarian): > 100 µM
- TGI (DU-145 prostate): > 100 µM
- TGI (SK-MEL-28 melanoma): > 100 µM
- TGI (RXF 393 renal): > 100 µM
- TGI (SR leukemia): > 100 µM
- TGI (ACHN renal): > 100 µM
- TGI (MOLT-4 leukemia): > 100 µM
- TGI (SK-MEL-2 melanoma): > 100 µM
- TGI (NCI-H226 lung): > 100 µM
- TGI (HCT-15 colon): > 100 µM
- TGI (PC-3 prostate): > 100 µM
- TGI (UO-31 renal): > 100 µM
- TGI (SF-268 CNS): > 100 µM
- TGI (CCRF-CEM leukemia): > 100 µM
- TGI (SK-MEL-5 melanoma): > 100 µM
- TGI (UACC-62 melanoma): > 100 µM
- TGI (HL-60(TB) leukemia): > 100 µM
- TGI (UACC-257 melanoma): > 100 µM
- TGI (NCI-H522 lung): > 100 µM
- TGI (786-0 renal): > 100 µM
- TGI (MDA-MB-231 breast): > 100 µM
- TGI (NCI-H460 lung): > 100 µM
- TGI (SK-OV-3 ovarian): > 100 µM
- TGI (MDA-N): > 100 µM
- TGI (SF-295 CNS): > 100 µM
- TGI (MCF7 breast): > 100 µM
- TGI (IGROV1 ovarian): > 100 µM
- TGI (LOX IMVI melanoma): > 100 µM
- TGI (HOP-62 NSCLC): > 100 µM
- TGI (OVCAR-5 ovarian): > 100 µM
- TGI (COLO 205 colon): > 100 µM
- TGI (OVCAR-4 ovarian): > 100 µM
- TGI (SN12C renal): > 100 µM
- TGI (A549 NSCLC): > 100 µM
- TGI (SNB-19 CNS): > 100 µM
- TGI (NCI-H23 lung): > 100 µM
- TGI (CAKI-1 renal): > 100 µM
- TGI (SF-539 CNS): > 100 µM
- TGI (T-47D breast): > 100 µM
- TGI (HT29 colon): > 100 µM
- TGI (KM12 colon): > 100 µM
- TGI (EKVX NSCLC): > 100 µM
- TGI (HCT-116 colon): > 100 µM
- TGI (SNB-75 CNS): > 100 µM
- TGI (SW-620 colon): > 100 µM
- TGI (HS 578T breast): > 100 µM
- TGI (MALME-3M melanoma): > 100 µM
